Results published in ChEMBL document CHEMBL4316584, “All that glitters is not gold: Panning cytotoxic natural products and derivatives with a fused tricyclic backbone by the estimation of their leadlikeness for cancer treatment” (Eur J Med Chem, 2019).

Experiments:
HCT-116 = assay: Cytotoxicity against human HCT116 cells after 48 hrs by MTT assay; type: functional, cell-based; conditions: HCT-116, 48 h
HeLa = assay: Cytotoxicity against human HeLa cells after 48 hrs by MTT assay; type: functional, cell-based

Compound `O=C1c2cccc(O)c2C(=O)c2c(O)cc(Cn3cc(F)c(=O)[nH]c3=O)cc21` has an IC50 (HCT-116) of 2.8 µM.

`CC(C)C1=C(O)C(=O)C2=C(C=C[C@H]3C(C)(C)CCC[C@]23C)C1=O` gave an IC50 (HeLa) of 6.56 µM.

`Cc1cccc2c1ccc1cc(C(C)C)c(=O)oc12` was tested, and the IC50 (HeLa) was 7.92 µM.

Compound `CCN(C)CC1CCc2c(n(C)c3ccccc23)C1=O` (stereo not given) has an IC50 (HCT-116) of 11.8 µM.

`CC(=O)O[C@@H]1[C@H](C)CC(O)=C2C(=O)c3c(ccc(-c4ccc5c(c4O)C(=O)C4=C(O)C[C@@H](C)[C@@H](OC(C)=O)[C@@]4(CO)O5)c3O)O[C@@]21CO` [DICERANDROL A] was tested, and the IC50 (HCT-116) was 2.64 µM.

`COc1c(O)cc2oc3cc(O)c(CC=C(C)C)c(O)c3c(=O)c2c1C/C=C(\C)CCC=C(C)C` [COWANIN] was tested, and the IC50 (HeLa) was 11.7 µM.

`CC(=O)O[C@@H]1[C@H](C)CC(O)=C2C(=O)c3c(ccc(-c4ccc(O)c5c4O[C@@]4(CO)C(=C(O)C[C@@H](C)[C@H]4OC(C)=O)C5=O)c3O)O[C@@]21CO` was tested, and the IC50 (HCT-116) was 7.12 µM.

For `COC1=CC(=O)c2c(cc3c(c2O)C[C@@H](O)[C@@](C)(O)C3)C1=O` [NIGROSPORIN B], the IC50 (HCT-116) was 4.7 µM.

`CCOC(=O)CN(C)CC1CCc2c(n(C)c3ccccc23)C1=O` (stereo not given) gave an IC50 (HCT-116) of 18.9 µM.

With `CC(C)c1ccc2c(c1)CC[C@H]1[C@](C)(C(=O)NC(=S)N[C@@H](C)C(=O)Nc3ccccn3)CCC[C@]21C` the IC50 (HeLa) was 14.3 µM.

`CNC1=CC(=O)c2c(O)c3c(c(O)c2C1=O)C[C@](C)(O)[C@H](O)C3` gave an IC50 (HCT-116) of 16.6 µM.

For `Cc1cccc2c1ccc1cc(C(C)CO)c(=O)oc12` (stereo not given), the IC50 (HeLa) was 0.86 µM.

Compound `Cc1cc(C)cc(NC(=O)[C@H](C)NC(=S)NC(=O)[C@]2(C)CCC[C@]3(C)c4ccc(C(C)C)cc4CC[C@@H]23)c1` has an IC50 (HeLa) of 18.6 µM.

Work on `C[C@]1(O)Cc2c(O)c3c(c(O)c2C[C@H]1O)C(=O)C=C(NCc1ccc(F)cc1)C3=O` yielded an IC50 (HCT-116) of 7.09 µM.

In the case of `O=C(/C=C/c1cc2c([nH]c3ccccc32)c(-c2ccc(C(F)(F)F)cc2)n1)c1cccs1`, the IC50 (HeLa) is reported as 9.54 µM.

`CC(=O)N1N=C(c2cccs2)CC1c1cc2c([nH]c3ccccc32)c(-c2ccc(F)c(F)c2)n1` (stereo not given) showed an IC50 (HeLa) of 8.7 µM.

For `COc1cc(-c2nc(/C=C/C(=O)c3ccc(N)cc3)cc3c2[nH]c2ccccc23)ccc1F`, the IC50 (HeLa) was 15.2 µM.

For `COc1cc2oc3cc(O)c(OC)c(CC=C(C)C)c3c(=O)c2c(O)c1CC=C(C)C`, the IC50 (HeLa) was 12.8 µM.

Work on `CCOc1ccc(/C=C2\CCc3c([nH]c4ccc(Cl)cc34)C2=O)cc1OCC` yielded an IC50 (HeLa) of 2.73 µM.

Compound `CC(C)c1cc(C(=O)O)c2c(c1O)O[C@H]1C(C)(C)CCC[C@]21C` has an IC50 (HeLa) of 17.8 µM.

`COc1cc(-c2nc(C3CC(c4cccs4)=NN3C(C)=O)cc3c2[nH]c2ccccc23)cc(OC)c1OC` (stereo not given) gave an IC50 (HeLa) of 4.51 µM.

Compound `COc1cc(NC(=O)[C@H](Cc2ccccc2)NC(=S)NC(=O)[C@]2(C)CCC[C@]3(C)c4ccc(C(C)C)cc4CC[C@@H]23)cc(OC)c1OC` has an IC50 (HeLa) of 17.5 µM.

`C=CCc1cc2oc3cc(OC)cc(O)c3c(=O)c2c(OC)c1O` showed an IC50 (HeLa) of 18.7 µM.

`CCOc1ccc(/C=C2\CCc3c([nH]c4ccc(C)cc34)C2=O)cc1OCC` was tested, and the IC50 (HeLa) was 0.8 µM.

Work on `COc1cc(-c2nc(/C=C/C(=O)c3cccs3)cc3c2[nH]c2ccccc23)cc(OC)c1OC` yielded an IC50 (HeLa) of 6.91 µM.

`COc1cc(NC(=O)[C@H](C)NC(=S)NC(=O)[C@]2(C)CCC[C@]3(C)c4ccc(C(C)C)cc4CC[C@@H]23)cc(OC)c1OC` gave an IC50 (HeLa) of 18.1 µM.

`COc1cc2c(=O)c3c(O)c(C/C=C(\C)CCC=C(C)C)c(O)cc3oc2cc1O` [COWAXANTHONE] showed an IC50 (HeLa) of 15.8 µM.

`COc1c(O)cc2oc3cc(O)c(C/C=C(/C)CO)c(O)c3c(=O)c2c1C/C=C(\C)CCCC(C)(C)O` was tested, and the IC50 (HeLa) was 16.7 µM.

With `Cc1ccc(NC(=O)[C@H](Cc2ccccc2)NC(=S)NC(=O)[C@]2(C)CCC[C@]3(C)c4ccc(C(C)C)cc4CC[C@@H]23)cc1` the IC50 (HeLa) was 19.1 µM.

`CC(=O)N1N=C(c2cccs2)CC1c1cc2c([nH]c3ccccc32)c(-c2ccc(C(F)(F)F)cc2)n1` (stereo not given) gave an IC50 (HeLa) of 19 µM.

Work on `Nc1ccc(C(=O)/C=C/c2cc3c([nH]c4ccccc43)c(-c3ccc(F)cc3)n2)cc1` yielded an IC50 (HeLa) of 18.5 µM.

`CC(C)c1ccc2c(c1)CC[C@H]1[C@](C)(C(=O)NC(=S)N[C@@H](Cc3ccccc3)C(=O)Nc3ccc(Br)cc3)CCC[C@]21C` gave an IC50 (HeLa) of 15.7 µM.

In the case of `CC(C)c1ccc2c(c1)CC[C@H]1[C@](C)(C(=O)NC(=S)N[C@@H](Cc3ccccc3)C(=O)Nc3ccccc3F)CCC[C@]21C`, the IC50 (HeLa) is reported as 18.8 µM.

Work on `COc1ccc(-c2nc(/C=C/C(=O)c3ccc(N)cc3)cc3c2[nH]c2ccccc23)cc1OC` yielded an IC50 (HeLa) of 13.5 µM.

Work on `O=C(/C=C/c1cc2c([nH]c3ccccc32)c(-c2ccc(C(F)(F)F)cc2)n1)c1ccc[nH]1` yielded an IC50 (HeLa) of 7.24 µM.

With `CC(C)c1ccc2c(c1)CC[C@H]1[C@](C)(C(=O)NC(=S)N[C@@H](Cc3ccccc3)C(=O)Nc3ccc(Cl)cc3)CCC[C@]21C` the IC50 (HeLa) was 17.2 µM.

`CC(C)c1ccc2c(c1)CC[C@H]1[C@](C)(C(=O)NC(=S)N[C@@H](Cc3ccccc3)C(=O)Nc3ccccc3Br)CCC[C@]21C` showed an IC50 (HeLa) of 12.7 µM.

`Cc1ccccc1NC(=O)[C@H](Cc1ccccc1)NC(=S)NC(=O)[C@]1(C)CCC[C@]2(C)c3ccc(C(C)C)cc3CC[C@@H]12` showed an IC50 (HeLa) of 17.7 µM.

With `CC(C)c1ccc2c(c1)CC[C@H]1[C@](C)(C(=O)NC(=S)N[C@@H](Cc3ccccc3)C(=O)Nc3ccccc3Cl)CCC[C@]21C` the IC50 (HeLa) was 17 µM.

`COc1cc(-c2nc(/C=C/C(=O)c3ccc(F)cc3)cc3c2[nH]c2ccccc23)cc(OC)c1OC` gave an IC50 (HeLa) of 13.4 µM.

For `NCCCCNCCNCc1c2ccccc2c(CNCCNCCCCN)c2ccccc12`, the IC50 (HeLa) was 20 µM.

For `CC(C)c1ccc2c(c1)CC[C@H]1[C@](C)(C(=O)NC(=S)N[C@@H](C)C(=O)Nc3ccc(Br)cc3)CCC[C@]21C`, the IC50 (HeLa) was 19 µM.

For `COc1cc(-c2nc(Cn3cc(CN4C(=O)c5ccc(C)cc5C4=O)nn3)cc3c2[nH]c2ccccc23)cc(OC)c1OC`, the IC50 (HeLa) was 15.6 µM.

With `CC(C)c1ccc2c(c1)CC[C@H]1[C@](C)(C(=O)NC(=S)N[C@@H](Cc3ccccc3)C(=O)Nc3ccccn3)CCC[C@]21C` the IC50 (HeLa) was 6.58 µM.

Work on `COc1cc(-c2nc(/C=C/C(=O)c3ccc(O)cc3)cc3c2[nH]c2ccccc23)cc(OC)c1OC` yielded an IC50 (HeLa) of 12.5 µM.

In the case of `CC(=O)N1N=C(c2ccc[nH]2)CC1c1cc2c([nH]c3ccccc32)c(-c2ccc(C(F)(F)F)cc2)n1` (stereo not given), the IC50 (HeLa) is reported as 6.24 µM.

Compound `CCOc1ccc(/C=C2\CCc3c([nH]c4c(C)cccc34)C2=O)cc1OCC` has an IC50 (HeLa) of 1.5 µM.

`COc1ccc(NC(=O)[C@H](Cc2ccccc2)NC(=S)NC(=O)[C@]2(C)CCC[C@]3(C)c4ccc(C(C)C)cc4CC[C@@H]23)cc1` gave an IC50 (HeLa) of 15.6 µM.

`Cc1cc(C)cc(NC(=O)[C@H](Cc2ccccc2)NC(=S)NC(=O)[C@]2(C)CCC[C@]3(C)c4ccc(C(C)C)cc4CC[C@@H]23)c1` showed an IC50 (HeLa) of 15.8 µM.

Work on `CC(C)c1ccc2c(c1)CC[C@H]1[C@](C)(CO)CCC[C@]21C` [POMIFERIN A] yielded an IC50 (HeLa) of 15.7 µM.

Work on `CC(C)c1cc2c(cc1O)[C@@]1(C)CCCC(C)(C)[C@@H]1[C@@H](O)C2=O` yielded an IC50 (HeLa) of 7.7 µM.

In the case of `CC(=O)N1N=C(c2ccco2)CC1c1cc2c([nH]c3ccccc32)c(-c2ccc(F)c(F)c2)n1` (stereo not given), the IC50 (HeLa) is reported as 3.38 µM.

`COc1c(O)cc2oc3cc(O)c(C/C=C(/C)CO)c(O)c3c(=O)c2c1CCC(C)(O)CCC=C(C)C` (stereo not given) was tested, and the IC50 (HeLa) was 17.2 µM.

Work on `CC(C)c1ccc2c(c1)CC[C@H]1[C@](C)(C(=O)NC(=S)N[C@@H](C)C(=O)Nc3ccccc3Cl)CCC[C@]21C` yielded an IC50 (HeLa) of 19.7 µM.

Compound `CC(C)c1ccc2c(c1)CC[C@H]1[C@](C)(C(=O)NC(=S)N[C@@H](Cc3ccccc3)C(=O)Nc3cccc4ccccc34)CCC[C@]21C` has an IC50 (HeLa) of 12.8 µM.
